Experimental data from ChEMBL document CHEMBL1649268, “Comparative in vitro activity profile of oritavancin against recent gram-positive clinical isolates” (2009).
In brackets after ≈: the same amount, converted by molar mass.

Assays:
Streptococcus pneumoniae [1] = experiment: Antimicrobial activity against Streptococcus pneumoniae clinical isolates by broth microdilution method; type: functional
Streptococcus pneumoniae [2] = experiment: Antimicrobial activity against penicillin-susceptible Streptococcus pneumoniae clinical isolates by broth microdilution method; type: functional
Streptococcus pneumoniae [3] = experiment: Antimicrobial activity against penicillin-intermediate Streptococcus pneumoniae clinical isolates by broth microdilution method; type: functional
Streptococcus pneumoniae [4] = experiment: Antimicrobial activity against penicillin-resistant Streptococcus pneumoniae clinical isolates by broth microdilution method; type: functional
Streptococcus [5] = experiment: Antimicrobial activity against erythromycin-nonsusceptible Streptococcus Group F clinical isolates assessed as percent susceptible isolates by broth microdilution method; type: functional
Streptococcus [6] = experiment: Antimicrobial activity against erythromycin-susceptible Streptococcus Group F clinical isolates assessed as percent susceptible isolates by broth microdilution method; type: functional
Streptococcus [7] = experiment: Antimicrobial activity against Streptococcus Group F clinical isolates assessed as percent susceptible isolates by broth microdilution method; type: functional
[8] = Antimicrobial activity against erythromycin-nonsusceptible Streptococcus Group G clinical isolates assessed as percent susceptible isolates by broth microdilution method; type: functional, Streptococcus sp. 'group G'
[9] = Antimicrobial activity against erythromycin-susceptible Streptococcus Group G clinical isolates assessed as percent susceptible isolates by broth microdilution method; type: functional, Streptococcus sp. 'group G'
[10] = Antimicrobial activity against Streptococcus Group G clinical isolates assessed as percent susceptible isolates by broth microdilution method; type: functional, Streptococcus sp. 'group G'
[11] = Antimicrobial activity against erythromycin-nonsusceptible Streptococcus Group C clinical isolates assessed as percent susceptible isolates by broth microdilution method; type: functional, Streptococcus sp. 'group C'
[12] = Antimicrobial activity against erythromycin-susceptible Streptococcus Group C clinical isolates assessed as percent susceptible isolates by broth microdilution method; type: functional, Streptococcus sp. 'group C'
[13] = Antimicrobial activity against Streptococcus Group C clinical isolates assessed as percent susceptible isolates by broth microdilution method; type: functional, Streptococcus sp. 'group C'
Streptococcus pyogenes [14] = experiment: Antimicrobial activity against erythromycin-nonsusceptible Streptococcus pyogenes clinical isolates assessed as percent susceptible isolates by broth microdilution method; type: functional
Streptococcus pyogenes [15] = experiment: Antimicrobial activity against erythromycin-susceptible Streptococcus pyogenes clinical isolates assessed as percent susceptible isolates by broth microdilution method; type: functional
Streptococcus pyogenes [16] = experiment: Antimicrobial activity against Streptococcus pyogenes clinical isolates assessed as percent susceptible isolates by broth microdilution method; type: functional
Streptococcus agalactiae [17] = experiment: Antimicrobial activity against erythromycin-nonsusceptible Streptococcus agalactiae clinical isolates assessed as percent susceptible isolates by broth microdilution method; type: functional
Streptococcus agalactiae [18] = experiment: Antimicrobial activity against erythromycin-susceptible Streptococcus agalactiae clinical isolates assessed as percent susceptible isolates by broth microdilution method; type: functional
Streptococcus agalactiae [19] = experiment: Antimicrobial activity against Streptococcus agalactiae clinical isolates assessed as percent susceptible isolates by broth microdilution method; type: functional
Streptococcus [20] = experiment: Antimicrobial activity against Streptococcus Group F clinical isolates assessed as resistant isolates by broth microdilution method; type: functional
Streptococcus [21] = experiment: Antimicrobial activity against erythromycin-susceptible Streptococcus Group F clinical isolates assessed as resistant isolates by broth microdilution method; type: functional
Streptococcus [22] = experiment: Antimicrobial activity against erythromycin-nonsusceptible Streptococcus Group F clinical isolates assessed as resistant isolates by broth microdilution method; type: functional
Streptococcus pneumoniae [23] = experiment: Antimicrobial activity against Streptococcus pneumoniae clinical isolates assessed as percent susceptible isolates by broth microdilution method; type: functional
Streptococcus pneumoniae [24] = experiment: Antimicrobial activity against penicillin-susceptible Streptococcus pneumoniae clinical isolates assessed as percent susceptible isolates by broth microdilution method; type: functional
Streptococcus pneumoniae [25] = experiment: Antimicrobial activity against penicillin-intermediate Streptococcus pneumoniae clinical isolates assessed as percent susceptible isolates by broth microdilution method; type: functional
[26] = Antimicrobial activity against erythromycin-nonsusceptible Streptococcus Group G clinical isolates assessed as resistant isolates by broth microdilution method; type: functional, Streptococcus sp. 'group G'
[27] = Antimicrobial activity against erythromycin-susceptible Streptococcus Group G clinical isolates assessed as resistant isolates by broth microdilution method; type: functional, Streptococcus sp. 'group G'
[28] = Antimicrobial activity against Streptococcus Group G clinical isolates assessed as resistant isolates by broth microdilution method; type: functional, Streptococcus sp. 'group G'
[29] = Antimicrobial activity against erythromycin-nonsusceptible Streptococcus Group C clinical isolates assessed as resistant isolates by broth microdilution method; type: functional, Streptococcus sp. 'group C'
[30] = Antimicrobial activity against erythromycin-susceptible Streptococcus Group C clinical isolates assessed as resistant isolates by broth microdilution method; type: functional, Streptococcus sp. 'group C'
[31] = Antimicrobial activity against Streptococcus Group C clinical isolates assessed as resistant isolates by broth microdilution method; type: functional, Streptococcus sp. 'group C'
Streptococcus pyogenes [32] = experiment: Antimicrobial activity against erythromycin-nonsusceptible Streptococcus pyogenes clinical isolates assessed as resistant isolates by broth microdilution method; type: functional
Streptococcus pyogenes [33] = experiment: Antimicrobial activity against erythromycin-susceptible Streptococcus pyogenes clinical isolates assessed as resistant isolates by broth microdilution method; type: functional
Streptococcus pyogenes [34] = experiment: Antimicrobial activity against Streptococcus pyogenes clinical isolates assessed as resistant isolates by broth microdilution method; type: functional
Streptococcus agalactiae [35] = experiment: Antimicrobial activity against erythromycin-nonsusceptible Streptococcus agalactiae clinical isolates assessed as resistant isolates by broth microdilution method; type: functional
Streptococcus agalactiae [36] = experiment: Antimicrobial activity against erythromycin-susceptible Streptococcus agalactiae clinical isolates assessed as resistant isolates by broth microdilution method; type: functional
Streptococcus agalactiae [37] = experiment: Antimicrobial activity against Streptococcus agalactiae clinical isolates assessed as resistant isolates by broth microdilution method; type: functional
Streptococcus pneumoniae [38] = experiment: Antimicrobial activity against Streptococcus pneumoniae clinical isolates assessed as resistant isolates by broth microdilution method; type: functional
Streptococcus [39] = experiment: Antimicrobial activity against erythromycin-nonsusceptible Streptococcus Group F clinical isolates by broth microdilution method; type: functional
Streptococcus [40] = experiment: Antimicrobial activity against erythromycin-susceptible Streptococcus Group F clinical isolates by broth microdilution method; type: functional
Streptococcus [41] = experiment: Antimicrobial activity against Streptococcus Group F clinical isolates by broth microdilution method; type: functional
[42] = Antimicrobial activity against erythromycin-nonsusceptible Streptococcus Group G clinical isolates by broth microdilution method; type: functional; conditions: Streptococcus sp. 'group G'
[43] = Antimicrobial activity against erythromycin-susceptible Streptococcus Group G clinical isolates by broth microdilution method; type: functional; conditions: Streptococcus sp. 'group G'
[44] = Antimicrobial activity against Streptococcus Group G clinical isolates by broth microdilution method; type: functional; conditions: Streptococcus sp. 'group G'
[45] = Antimicrobial activity against erythromycin-nonsusceptible Streptococcus Group C clinical isolates by broth microdilution method; type: functional; conditions: Streptococcus sp. 'group C'
[46] = Antimicrobial activity against erythromycin-susceptible Streptococcus Group C clinical isolates by broth microdilution method; type: functional; conditions: Streptococcus sp. 'group C'
[47] = Antimicrobial activity against Streptococcus Group C clinical isolates by broth microdilution method; type: functional; conditions: Streptococcus sp. 'group C'
Streptococcus pyogenes [48] = experiment: Antimicrobial activity against erythromycin-nonsusceptible Streptococcus pyogenes clinical isolates by broth microdilution method; type: functional
Streptococcus pyogenes [49] = experiment: Antimicrobial activity against erythromycin-susceptible Streptococcus pyogenes clinical isolates by broth microdilution method; type: functional
Streptococcus pyogenes [50] = experiment: Antimicrobial activity against Streptococcus pyogenes clinical isolates by broth microdilution method; type: functional
Streptococcus agalactiae [51] = experiment: Antimicrobial activity against erythromycin-nonsusceptible Streptococcus agalactiae clinical isolates by broth microdilution method; type: functional
Streptococcus agalactiae [52] = experiment: Antimicrobial activity against erythromycin-susceptible Streptococcus agalactiae clinical isolates by broth microdilution method; type: functional
Streptococcus agalactiae [53] = experiment: Antimicrobial activity against Streptococcus agalactiae clinical isolates by broth microdilution method; type: functional

Which MIC90 (Streptococcus pneumoniae [1]) does the source give for `CC1(C)S[C@@H]2[C@H](NC(=O)Cc3ccccc3)C(=O)N2[C@H]1C(=O)O` [PENICILLIN G] here?
The MIC90 was 2 µg/mL (≈ 5.98 µM).

What about the MIC (Streptococcus pneumoniae [2]) of the same compound?
The MIC was ≤ 0.03 µg/mL.

And the MIC90 (Streptococcus pneumoniae [2])?
Its MIC90 is ≤ 0.03 µg/mL.

What about the MIC90 (Streptococcus pneumoniae [3]) of the same compound?
Its MIC90 is 1 µg/mL (≈ 2.99 µM).

What about the MIC90 (Streptococcus pneumoniae [4]) of the same compound?
Its MIC90 is 4 µg/mL (≈ 12 µM).

What about the Activity (Streptococcus [5]) of the same compound?
Its Activity is 100%.

What about the Activity (Streptococcus [6]) of the same compound?
The Activity was 100%.

What about the Activity (Streptococcus [7]) of the same compound?
The Activity was 100%.

What about the Activity [8] of the same compound?
Its Activity is 100%.

And the Activity [9]?
Its Activity is 100%.

What about the Activity [10] of the same compound?
The Activity was 100%.

And the Activity [11]?
The Activity was 100%.

And the Activity [12]?
The Activity was 100%.

What about the Activity [13] of the same compound?
The Activity was 100%.

And the Activity (Streptococcus pyogenes [14])?
Its Activity is 100%.

What about the Activity (Streptococcus pyogenes [15]) of the same compound?
The Activity was 100%.

What about the Activity (Streptococcus pyogenes [16]) of the same compound?
The Activity was 100%.

What about the Activity (Streptococcus agalactiae [17]) of the same compound?
The Activity was 100%.

What about the Activity (Streptococcus agalactiae [18]) of the same compound?
Its Activity is 100%.

What about the Activity (Streptococcus agalactiae [19]) of the same compound?
The Activity was 100%.

And the Activity (Streptococcus [20])?
The Activity was 0%.

And the Activity (Streptococcus [21])?
The Activity was 0%.

What about the Activity (Streptococcus [22]) of the same compound?
The Activity was 0%.

And the Activity (Streptococcus pneumoniae [23])?
The Activity was 64%.

And the Activity (Streptococcus pneumoniae [24])?
Its Activity is 100%.

What about the Activity (Streptococcus pneumoniae [25]) of the same compound?
The Activity was 0%.

And the Activity [26]?
Its Activity is 0%.

What about the Activity [27] of the same compound?
The Activity was 0%.

What about the Activity [28] of the same compound?
The Activity was 0%.

And the Activity [29]?
Its Activity is 0%.

And the Activity [30]?
The Activity was 0%.

What about the Activity [31] of the same compound?
The Activity was 0%.

And the Activity (Streptococcus pyogenes [32])?
Its Activity is 0%.

What about the Activity (Streptococcus pyogenes [33]) of the same compound?
Its Activity is 0%.

And the Activity (Streptococcus pyogenes [34])?
The Activity was 0%.

And the Activity (Streptococcus agalactiae [35])?
The Activity was 0%.

And the Activity (Streptococcus agalactiae [36])?
Its Activity is 0%.

What about the Activity (Streptococcus agalactiae [37]) of the same compound?
Its Activity is 0%.

And the Resistant isolates (Streptococcus pneumoniae [38])?
The Resistant isolates was 14.7%.

And the MIC90 (Streptococcus [39])?
The MIC90 was 0.03 µg/mL (≈ 0.0897 µM).

And the MIC90 (Streptococcus [40])?
The MIC90 was 0.06 µg/mL (≈ 0.179 µM).

What about the MIC90 (Streptococcus [41]) of the same compound?
Its MIC90 is 0.06 µg/mL (≈ 0.179 µM).

What about the MIC90 [42] of the same compound?
The MIC90 was 0.03 µg/mL (≈ 0.0897 µM).

And the MIC90 [43]?
The MIC90 was 0.06 µg/mL (≈ 0.179 µM).

And the MIC90 [44]?
Its MIC90 is 0.06 µg/mL (≈ 0.179 µM).

And the MIC90 [45]?
The MIC90 was 0.03 µg/mL (≈ 0.0897 µM).

What about the MIC90 [46] of the same compound?
The MIC90 was 0.06 µg/mL (≈ 0.179 µM).

What about the MIC90 [47] of the same compound?
The MIC90 was 0.06 µg/mL (≈ 0.179 µM).

And the MIC90 (Streptococcus pyogenes [48])?
Its MIC90 is 0.03 µg/mL (≈ 0.0897 µM).

What about the MIC90 (Streptococcus pyogenes [49]) of the same compound?
The MIC90 was ≤ 0.03 µg/mL.

What about the MIC90 (Streptococcus pyogenes [50]) of the same compound?
The MIC90 was ≤ 0.03 µg/mL.

And the MIC90 (Streptococcus agalactiae [51])?
The MIC90 was 0.06 µg/mL (≈ 0.179 µM).

And the MIC90 (Streptococcus agalactiae [52])?
The MIC90 was 0.06 µg/mL (≈ 0.179 µM).

What about the MIC90 (Streptococcus agalactiae [53]) of the same compound?
Its MIC90 is 0.06 µg/mL (≈ 0.179 µM).
